Assay results: patent US20240150338A1, “COMPOUNDS AND USE THEREOF FOR TREATMENT OF NEURODEGENERATIVE, DEGENERATIVE AND METABOLIC DISORDERS” (University of Florida Research Foundation, Incorporated, priority 2021, published 2024)

Key:
[1] = tested on: PK1 neuroblastoma cells exposed to TPrP; experiment: cells; assay type: cell-based; details: Neuroblastoma cell, 96 h, read-out: TPrP EC50
[2] = Microsomal stability assay; assay type: in vitro ADME; details: 1 mg/ml human hepatic microsomes, 37° C., half-life by LC-MS/MS; yes = stability ≥15 minutes
Protocol: The metabolic stability of some test compounds was determined in hepatic human and mouse microsomes. The compound was incubated with 1 mg/ml human or mouse hepatic microsomes at 37° C. with continuous shaking. Aliquots were removed at various time points between 5 minutes and 2 hours and acetonitrile was added to quench the reactions and precipitate the proteins. Samples were then centrifuged through 0.45 μm filter plates and half-lives were determined by LC-MS/MS.

| SMILES | EC50 [1] [nM] | Stabilty in human microsomes ≥ 15 minutes [2] |
| --- | --- | --- |
| NS(=O)(=O)c1ccc(Nc2nc(-c3ccncc3)c(CO)s2)cc1 [SR-28550, 4-((5-(Hydroxymethyl)-4-(pyridin-4-yl)thiazol-2-yl)amino)benzenesulfonamide] | 70 | yes |
| Cc1cc(-c2csc(Nc3ccc(S(N)(=O)=O)cc3)n2)ccn1 [SR-33124, 4-((4-(2-Methylpyridin-4-yl)thiazol-2-yl)amino)benzenesulfonamide] | 30 | yes |
| NS(=O)(=O)c1ccc(Nc2nc(-c3ccnc(Cl)c3)cs2)cc1 [SR-33125, 4-((4-(2-Chloropyridin-4-yl)thiazol-2-yl)amino)benzenesulfonamide] | 35 | yes |
| Cc1cc(-c2csc(Nc3ccc(S(=O)(=O)O)cc3)n2)ccn1 [SR-33126, 4-((4-(2-Methylpyridin-4-yl)thiazol-2-Yl)amino)benzenesulfonic acid] | 25 | yes |
| Cc1cc(-c2csc(Nc3ccc(S(C)(=O)=O)c(Cl)c3)n2)ccn1 [SR-33127, N-(3-chloro-4-(methylsulfonyl)phenyl)-4-(2-methylpyridin-4-yl)thiazol-2-amine] | 25 | yes |
| O=S(=O)(O)c1ccc(Nc2nc(-c3ccnc(Cl)c3)cs2)cc1 [SR-33128, 4-((4-(2-Chloropyridin-4-yl)thiazol-2-yl)amino)benzenesulfonic acid] | > 500 | yes |
| CS(=O)(=O)c1ccc(Nc2nc(-c3ccnc(Cl)c3)cs2)cc1Cl [SR-33129, N-(3-chloro-4-(methylsulfonyl)phenyl)-4-(2-chloropyridin-4-yl)thiazol-2-amine] | 65 | yes |
| Cc1cc(-c2nc(Nc3ccc(S(N)(=O)=O)cc3)sc2CO)ccn1 [SR-33524, 4-((5-(Hydroxmethyl)-4-(2-methylpyridin-4-yl)thiazol-2-yl)amino)benzenesulfonamide] | 60 | yes |
| NS(=O)(=O)c1ccc(Nc2nc(-c3ccnc(Cl)c3)c(CO)s2)cc1 [SR-33525, 4-((4-(2-Chloropyridin-4-yl)-5-(hydroxymethyl)thiazol-2-yl)amino)benzenesulfonamide] | 65 | yes |
| CCN(CC)S(=O)(=O)c1ccc(-c2nc(Nc3ccc(S(C)(=O)=O)cc3)sc2CO)cc1 [SR-34970, N,N-diethyl-4-(5-(hydroxymethyl)-2-((4-(methylsulfonyl)phenyl)amino)thiazol-4-yl)benzenesulfonamide] | > 500 | – |
| CC(C)NS(=O)(=O)c1ccc(-c2nc(Nc3ccc(S(C)(=O)=O)cc3)sc2CO)cc1 [SR-34971, 4-(5-(Hydroxymethyl)-2-((4-(methylsulfonyl)phenyl)amino)thiazol-4-yl)-N-isopropylbenzenesulfonamide] | > 500 | – |
| CS(=O)(=O)c1ccc(Nc2nc(-c3ccnc(Cl)c3)cs2)cc1F [SR-34972, 4-(2-Chloropyridin-4-yl)-N-(3-fluoro-4-(methylsulfonyl)phenyl)thiazol-2-amine] | 125 | – |
| Cc1cc(-c2csc(Nc3ccc(S(C)(=O)=O)c(F)c3)n2)ccn1 [SR-34973, N-(3-fluoro-4-(methylsulfonyl)phenyl)-4-(2-methylpyridin-4-yl)thiazol-2-amine] | 70 | – |
| COc1cc(-c2csc(Nc3ccc(S(C)(=O)=O)c(F)c3)n2)ccn1 [SR-34975, N-(3-fluoro-4-(methylsulfonyl)phenyl)-4-(2-methoxypyridin-4-yl)thiazol-2-amine] | 170 | – |
| COc1cc(-c2csc(Nc3ccc(S(C)(=O)=O)c(F)c3)n2)cc(OC)n1 [SR-34976, 4-(2,6-Dimethoxypyridin-4-yl)-N-(3-fluoro-4-(methylsulfonyl)phenyl)thiazol-2-amine] | 320 | – |
| CS(=O)(=O)c1ccc(Nc2nc(-c3ccnc(Cl)c3)c(CO)s2)cc1F [SR-34977, (4-(2-Chloropyridin-4-yl)-2-((3-fluoro-4-(methylsulfonyl)phenyl)amino)thiazol-5-yl)methanol] | 360 | – |
| Cc1cc(-c2nc(Nc3ccc(S(C)(=O)=O)c(F)c3)sc2CO)ccn1 [SR-34978, (2-((3-Fluoro-4-(methylsulfonyl)phenyl)amino)-4-(2-methylpyridin-4-yl)thiazol-5-yl)methanol] | 320 | – |
| Cc1cc(-c2nc(Nc3ccc(S(C)(=O)=O)c(F)c3)sc2CO)cc(C)n1 [SR-34979, (4-(2,6-Dimethylpyridin-4-yl)-2-((3-fluoro-4-(methylsulfonyl)phenyl)amino)thiazol-5-yl)methanol] | 360 | – |
| COc1cc(-c2nc(Nc3ccc(S(C)(=O)=O)c(F)c3)sc2CO)ccn1 [SR-34980, (2-((3-Fluoro-4-(methylsulfonyl)phenyl)amino)-4-(2-methoxypyridin-4-yl)thiazol-5-yl)methanol] | 320 | – |

| SMILES | EC50 [1] [nM] | Stabilty in human microsomes ≥ 15 minutes [2] |
| --- | --- | --- |
| COc1cc(-c2nc(Nc3ccc(S(C)(=O)=O)c(F)c3)sc2CO)cc(OC)n1 [SR-34981, (4-(2,6-Dimethoxypyridin-4-yl)-2-((3-fluoro-4-(methylsulfonyl)phenyl)amino)thiazol-5-yl)methanol] | > 500 | – |
| Cc1cc(-c2csc(Nc3ccc(S(C)(=O)=O)c(C(F)(F)F)c3)n2)ccn1 [SR-34983, 4-(2-Methylpyridin-4-yl)-N-(4-(methylsulfonyl)-3-(trifluoromethyl)phenyl)thiazol-2-amine] | 40 | – |
| COc1cc(-c2csc(Nc3ccc(S(C)(=O)=O)c(C(F)(F)F)c3)n2)ccn1 [SR-34985, 4-(2-Methoxypyridin-4-yl)-N-(4-(methylsulfonyl)-3-(trifluoromethyl)phenyl)thiazol-2-amine] | 335 | – |
| COc1cc(-c2csc(Nc3ccc(S(C)(=O)=O)c(C(F)(F)F)c3)n2)cc(OC)n1 [SR-34986, 4-(2,6-Dimethoxypyridin-4-yl)-N-(4-(methylsulfonyl)-3-(trifluoromethyl)phenyl)thiazol-2-amine] | > 500 | – |
| CS(=O)(=O)c1ccc(Nc2nc(-c3ccnc(Cl)c3)c(CO)s2)cc1C(F)(F)F [SR-34987, (4-(2-Chloropyridin-4-yl)-2-((4-(methylsulfonyl)-3-(trifluoromethyl)phenyl)amino)thiazol-5-yl)methanol] | 480 | – |
| Cc1cc(-c2nc(Nc3ccc(S(C)(=O)=O)c(C(F)(F)F)c3)sc2CO)ccn1 [SR-34988, (4-(2-Methylpyridin-4-yl)-2-((4-(methylsulfonyl)-3-(trifluoromethyl)phenyl)amino)thiazol-5-yl)methanol] | 335 | – |
| Cc1cc(-c2nc(Nc3ccc(S(C)(=O)=O)c(C(F)(F)F)c3)sc2CO)cc(C)n1 [SR-34989, (4-(2,6-Dimethylpyridin-4-yl)-2-((4-(methylsulfonyl)-3-(trifluoromethyl)phenyl)amino)thiazol-5-yl)methanol] | 325 | – |
| COc1cc(-c2nc(Nc3ccc(S(C)(=O)=O)c(C(F)(F)F)c3)sc2CO)ccn1 [SR-34990, (4-(2-Methoxypyridin-4-yl)-2-((4-(methylsulfonyl)-3-(trifluoromethyl)phenyl)amino)thiazol-5-yl)methanol] | 480 | – |
| COc1cc(-c2nc(Nc3ccc(S(C)(=O)=O)c(C(F)(F)F)c3)sc2CO)cc(OC)n1 [SR-34991, (4-(2,6-Dimethoxypyridin-4-yl)-2-((4-(methylsulfonyl)-3-(trifluoromethyl)phenyl)amino)thiazol-5-yl)methanol] | > 500 | – |
| Cc1cc(-c2nc(Nc3ccc(S(C)(=O)=O)c(Cl)c3)sc2CO)cc(C)n1 [SR-34995, (2-((3-Chloro-4-(methylsulfonyl)phenyl)amino)-4-(2,6-dimethylpyridin-4-yl)thiazol-5-yl)methanol] | 115 | – |
| COc1cc(-c2nc(Nc3ccc(S(C)(=O)=O)c(Cl)c3)sc2CO)ccn1 [SR-34996, (2-((3-Chloro-4-(methylsulfonyl)phenyl)amino)-4-(2-methoxypyridin-4-yl)thiazol-5-yl)methanol] | 170 | – |
| COCc1sc(Nc2ccc(S(C)(=O)=O)cc2)nc1-c1ccnc(C)c1 [SR-35364, 5-(Methoxymethyl)-4-(2-methylpyridin-4-yl)-N-(4-(methylsulfonyl)phenyl)thiazol-2-amine] | 230 | – |
| CCOCc1sc(Nc2ccc(S(C)(=O)=O)cc2)nc1-c1ccnc(C)c1 [SR-35365, 5-(Ethoxymethyl)-4-(2-methylpyridin-4-yl)-N-(4-(methylsulfonyl)phenyl)thiazol-2-amine] | 450 | – |
| Cc1cc(-c2nc(Nc3ccc(S(C)(=O)=O)cc3)sc2C=O)ccn1 [SR-35367, 4-(2-Methylpyridin-4-yl)-2-((4-(methylsulfonyl)phenyl)amino)thiazole-5-carbaldehyde] | 230 | – |
| CCN(c1ccc(S(C)(=O)=O)cc1)c1nc(-c2ccnc(C)c2)cs1 [SR-35368, N-ethyl-4-(2-methylpyridin-4-yl)-N-(4-(methylsulfonyl)phenyl)thiazol-2-amine] | 230 | – |
| Cc1cc(-c2nc(Nc3ccc(S(C)(=O)=O)cc3)sc2COc2ccccc2)ccn1 [SR-35369, 4-(2-Methylpyridin-4-yl)-N-(4-(methylsulfonyl)phenyl)-5-(phenoxymethyl)thiazol-2-amine] | > 500 | – |
| Cc1cc(-c2nc(Nc3ccc(S(C)(=O)=O)cc3)sc2COc2ccc(F)cc2)ccn1 [SR-35370, 5-((4-Fluorophenoxy)methyl)-4-(2-methylpyridin-4-yl)-N-(4-(methylsulfonyl)phenyl)thiazol-2-amine] | > 500 | – |
| Cc1cc(-c2nc(Nc3ccc(S(C)(=O)=O)cc3)sc2CSc2ccccc2)ccn1 [SR-35371, 4-(2-Methylpyridin-4-yl)-N-(4-(methylsulfonyl)phenyl)-5-((phenylthio)methyl)thiazol-2-amine] | > 500 | – |
| CNS(=O)(=O)c1ccc(-c2csc(Nc3ccc(S(C)(=O)=O)c(C(F)(F)F)c3)n2)cc1 [SR-35734, N-methyl-4-(2-((4-(methylsulfonyl)-3-(trifluoromethyl)phenyl)amino)thiazol-4-yl)benzenesulfonamide] | 3 | – |
